Reference: US20110300532A1, “CONTROL OF THE TOXICITY OF GOLD NANOPARTICLES” (priority 2009, published 2011)
“And” between values parts separate entries of the source, which are not always exact repeats. Equal values may be shown once. “Also recorded” adds a separate entry of the source. Read-outs that look alike come from different tables or passages of the source. Where a SMILES comes first, the peptide text is derived from it. The star is where a group is joined. Cbz = O=C(OCc1ccccc1)*; CH2F = FC*

Experiments:
[1] = system: HeLa cells; conditions: for cell survival: cells pretreated with antioxidant 3 hours, washed, post-treated with 100 μM Au1.4MS 48 hours
Method: A) untreated cells. B) cells treated with Au1.4MS for 48 hours. C) cells pretreated with antioxidant/reducing agent for 3 hours, washed and post-treated with Au1.4MS for 48 hours. D) Au1.4MS pre-treated with antioxidant/reducing agent for 3 hours, mixture added to cells for 48 hours. E) cells pre-treated with antioxidant/reducing agent for 3 hours, then added Au1.4MS and incubated for 48 hours. F) Antioxidant/reducing agent mixed with Au1.4MS and mixture immediately added to cells and incubated for 48 hours. G) cells incubated with antioxidant/reducing agent for 48 hours.
HeLa cells were plated in 96-well microtiter plates at initial densities of 2,000 in 100 μL and were incubated for 72 hours before adding reagents. Fresh medium containing nanoparticles and/or antioxidants (reducing agents) was added to each well and cells were incubated for another 48 hours. […] Antioxidants/Reducing agents were freshly prepared by dissolving the powders in H2O to 200 mM and further diluted in fresh cell culture medium to working concentration.

[2] = system: HeLa cells; experiment: Cell cycle and DNA content measurement using flow cytometry (propidium iodide); type: cell-based, human
Method: The protein p53 controls both the G2/M and the G1 cell cycle checkpoints and mediates reversible growth arrest in apoptotic fibroblasts (cf. M. Agarwal, A. Agarwal, W. Taylor, G. Stark, Proc Natl Acad Sci USA 1995, 92, 8493). To gain insight into the cell cycle progression in the context of Au1.4MS cytotoxicity, applicant measured the cellular DNA content and mitotic index of HeLa cells. […] Cells staining intermediary reside in S phase. When the HeLa cells were treated with staurosporine (curve 2) to trigger apoptosis the relative proportion of cells in G2 phase increased to 50% indicating a G2/M block of the cells. Together with the sub G1 peak and the low fluorescent peak indicating DNA fragments this pattern was typical of apoptosis. […] This is further corroborated by the fact that caspase activation, which is likewise a late event in apoptosis, but not in necrosis, was low in Au1.4MS treated cells and furthermore, that caspase inhibition by Z-VADfmk enhanced cell viability in staurosporine treated (apoptotic) cells, but not in Au1.4MS treated (secondary necrotic) cells (FIG. 4, 5).
Cell cycle and DNA content measurement using flow cytometry. HeLa cells were plated in 6-well plates and incubated for 72 hours before adding nanoparticles. […] 20,000 cells were analysed using FACSCalibur or FACSCanto flow cytometers and CELL-Quest software (Becton-Dickinson).

[3] = system: HeLa cells; experiment: Inhibition of apoptosis by caspase inhibitor Z-VAD-fmk (cell survival); type: cell-based, human
Method: Apoptosis is predominantly caspase-mediated and can be blocked by Z-VAD-fmk whereas necrosis cannot.
Inhibition of apoptosis. HeLa cells were plated in 96-well microtiter plates at initial densities of 2,000 in 100 μL and were incubated for 72 hours before adding reagents. Cells were left untreated or were pre-treated with the caspase inhibitor Z-VAD-fmk for 3 hours (BACHEM N1510). A stock solution of 100 mM Z-VAD-fmk in DMSO was prepared and kept at −20° C. Working solution was freshly prepared by diluting the stock solution in fresh cell culture medium.

[4] = system: caspase 3/7; experiment: Fluorogenic caspase activity determination (Apo-ONE caspase-3/7 assay); type: cell-based, human
Method: To confirm that the cells underwent necrosis instead of apoptosis applicant measured the caspase 3/7 activity (FIG. 4) using the fluorogenic substrate rhodamine 110 bis-(N-CBZ-L-aspartyl-L-glutamyl-L-valyl-aspartic acid amide), Z-DEVD-R110. Caspase 3/7 enzymes cleave carboxy-terminal to the aspartate in the DEVD peptide thus converting the substrate into fluorescent rhodamine. […] Thereafter caspase 3/7 activity declined until the end of the experiment at 48 hours.
Fluorogenic caspase activity determination. […] Cells were rinsed and 30 μL of medium containing 50 μM Au1.4MS was added. Untreated cells served as negative control and cells treated with 0.2 μM staurosporine served as a positive control. Apoptosis was measured using the fluorogenic caspase substrate, Apo-ONE® homogeneous caspase-3/7 assay (Promega) as described by the manufacturer. Briefly, Apo-ONE® stock solution (100fold working concentration) was […] in Apo-One® buffer and 30 μL of this was added to each well and incubated at 23° C. for 3 hours. 50 μL of the clear supernatant was transferred to a black microtiter plate and measured using a Fluorostar plate fluorometer (BMG Labtech, Offenburg, Germany) at excitation wavelength 485 nm and emission wavelength 520 nm.

[5] = system: HeLa cells; experiment: Flow cytometric determination of oxidative stress (CM-H2DCFDA); type: cell-based, human
Method: Applicant also studied the oxidative stress and mitochondrial damage induced by Au1.4MS nanoparticles. […] Applicant used 0.3% H2O2 as a positive control.
Flow cytometric determination of oxidative stress. HeLa cells were plated in 6-well plates at initial densities of 40,000 in 2 mL grown for 72 hours. Fresh medium containing nanoparticles (100 μM Au1.4MS, 1000 μM Au1.1GSH and Au15MS) was added to the cells and incubated for 0, 6, 12, 18, 24, 48 hours. All cell-material combinations were set up in triplicates. After the AuNP incubation, cells were trypsinized and rinsed with PBS. After rinsing cells were suspended in a buffer containing 5-(and-6)-chloromethyl-2′7′-dichlorodihydrofluorescein diacetate acetyl ester (CM-H2DCFDA) (Molecuar Probes/Invitrogen). Cells were incubated for 30 minutes at 37° C. as described by the manufacturer. Shortly, 50 μg CM-H2DCFDA powder was dissolved in 100 μL ethanol as stock solution and was kept in −20° C. For cell assays the stock solution was freshly diluted in PBS to a final working concentration of 2.5 μM. Cells incubated with 0.3% H2O2 for 30 minutes served as positive control. 20,000 cells were analysed using FACSCalibur or FACSCanto flow cytometers and CELL-Quest software (Becton-Dickinson).

O=C1O[C@H]([C@@H](O)CO)C(O)=C1O [ascorbic acid]
cell survival ([1]; NAC 3 mM, others 1 mM): 6%

CN[C@@H]1C[C@H]2O[C@@](C)([C@@H]1OC)n1c3ccccc3c3c4c(c5c6ccccc6n2c5c31)C(=O)NC4 [staurosporine]
DNA content / cell cycle pattern ([2]; propidium iodide flow cytometry, 100 μM Au1.4MS): hypodiploid peak in DNA content typical of G2/M arrest and apoptosis | relative proportion of cells in G2 phase ([2]; staurosporine treated HeLa cells): 50% | cell survival ([3]; staurosporine alone, 48 hours): 47% | incubation time of peak caspase 3/7 activity ([4]; 0.2 μM staurosporine or 50 μM Au1.4MS): 12 h | Caspase 3/7 activity increase ([4]; 0.2 μM staurosporine, HeLa): 6.5 fold | intracellular caspase 3/7 activity increase over background ([4]; 0.2 μM staurosporine, within 6 hours): 6 fold

N[C@@H](CCC(=O)N[C@@H](CS)C(=O)NCC(=O)O)C(=O)O [GSH, glutathione]
inhibition of the cytotoxicity of 100 μM Au1.4MS [1]: partially inhibit | cell survival ([1]; NAC 3 mM, others 1 mM): 15%

OO [H2O2]
oxidative stress (intracellular ROS, CM-H2DCFDA fluorescence) ([5]; 0.3% for 30 minutes, positive control): strong oxidative stress; also recorded: strong ROS generation

COC(=O)C[C@H](NC(=O)[C@H](C)NC(=O)[C@@H](NC(=O)OCc1ccccc1)C(C)C)C(=O)CF [Z-VAD-fmk] (Cbz-Val-Ala-Asp(OMe)-CH2F)
survival of staurosporin-treated HeLa cells after adding Z-VAD-fmk ([3]; 32 μM Z-VAD-fmk, 48 hours): 84% and 83% | survival of staurosporin-treated HeLa cells after adding Z-VAD-fmk ([3]; 500 μM Z-VAD-fmk, 48 hours): 90% | effect of Z-VAD-fmk on survival of Au1.4MS treated cells ([3]; HeLa cells): did not increase the survival; also recorded: did not increase cell survival

O=S(=O)([O-])c1cccc(P(c2ccccc2)c2ccccc2)c1.[Na+] [TPPMS, triphenylphosphine monosulfonate]
increase in intracellular fluorescence (ROS) ([5]; ligand alone, not shown): did not cause an increase in intracellular fluorescence | inhibition of the cytotoxicity of 100 μM Au1.4MS ([1]; HeLa, 48 hours, NAC 3 mM, others 1 mM): partially inhibit | cell survival ([1]; NAC 3 mM, others 1 mM): 11%

CC(=O)N[C@@H](CS)C(=O)O [NAC, N-acetylcysteine]
inhibition of the cytotoxicity of 100 μM Au1.4MS [1]: partially inhibit | cell survival ([1]; NAC 3 mM, others 1 mM): 7%
